Assay results reported in patent publication US20220411397A1, “ANALOGUES OF N-ACYL-HOMOSERINE LACTONES AND PHARMACEUTICAL COMPOSITION COMPRISING SAME” (SORBONNE UNIVERSITE, priority 2019, published 2022).
Where two headings read alike, the source gives them in different places.

Tests used:
[1] = test system: Caco-2/TC7 cells; test: Stimulation of Caco-2/TC7 cells by IL-1β, IL-8 secretion (ELISA); assay type: cell-based, human
Text: 1.1.1. The Caco-2/TC7 Cell Line • The Caco-2 cell line is derived from a human colon adenocarcinoma and represents a cell culture model of enterocytes lining the epithelium of the small intestinal. […] During the exponential growth phase (from seeding to confluence), the cells remain undifferentiated. At confluence, they can spontaneously (in the absence of differentiation inducers) differentiate and progressively polarize. The differentiation process, which is a growth-related mechanism, is maximal at the end of confluence (stationary phase of the growth curve). • The cells develop a brush border at the apical pole containing microvilli and with characteristic enterocytic enzymes, such as hydrolases. • In accordance with the published literature, the Caco-2/TC7 cells in our experiments were seeded at 10^5 cells/well (equivalent to 10-12×10^3 cells/cm^2) in 6-well plastic culture plates. The cells were maintained in a glucose-rich medium (high glucose in the DMEM GlutaMAX medium 4.5 g/I glucose) supplemented with 20% heat-inactivated foetal calf serum, 1% nonessential amino acids NEAA, and 1% penicillin streptomycin. The cells were grown at 37° C. in a 10% CO2/air atmosphere. The medium was changed every day. Under these conditions, the cells were confluent on day 6. On day 17, the cells were serum-starved, and were used on day 18.
1.2.1. Stimulation of Caco-2/TC7 with Cytokines • The Caco-2/TC7 cells were seeded in 6-well plates at 100,000 cells/well and grown for 18 days. On day 17, the cells were serum-starved, which means that the cell medium was replaced with a foetal calf serum-free medium, and used on day 18. • The stimulation medium was composed of a medium referred to as “starvation medium”, i.e. without foetal calf serum (DMEM GlutaMAX, 1% NEAA, 1% penicillin-streptomycin) with 100 μM of 2-HQ. The cells were incubated for 18 h at 37° C. with 2 ml of stimulation medium containing 0.1% DMSO (negative control) or stimulation medium containing the compounds tested at desired concentrations, with or without proinflammatory cytokines to induce an inflammation. To induce the inflammation, either the IL-1β at 25 ng/ml or the combination of TNF-α and IFN-γ at 50 ng/ml each were used. After 18 h, the supernatants were collected and stored at −80° C. before analysis by ELISA test. The cells were washed with 1 ml of PBS 1×/well, and lysed in 100 μl of PBS 1× containing 1% Triton X-100. The cells were harvested by scraping and stored at −80° C. before the quantification of the protein. The dosing of the LDH was performed immediately before freezing. • All the experiments on the cells were performed in triplicates.
1.2.4. Quantification of the Human Cytokines by ELISA • The levels of the proinflammatory cytokine IL-8 produced by the cells were determined in the cell supernatants and/or cell lysates using the commercially available IL-8 ELISA detection kit (Duoset Human C×CL8/IL-8, ref. DY208) provided by R & D Systems (Minneapolis, Minn., USA) according to the instructions of the manufacturer. • All the cytokine levels were first normalized to the protein content determined in the corresponding cell lysates. Then, to compare the experiments, they could be further normalized using the activated control condition (DMSO+cytokines) as the 100% response.

[2] = target: T1, LasR receptor (Pseudomonas aeruginosa, UniProt P25084); test: Activation of the LasR receptor on bacterial reporter strain E. coli pSB1075 (bioluminescence); assay type: cell-based
T1 construct: expressed in transfected cells; host or cells: Escherichia coli carrying plasmid pSB1075
T1 sequence (P25084 whole entry): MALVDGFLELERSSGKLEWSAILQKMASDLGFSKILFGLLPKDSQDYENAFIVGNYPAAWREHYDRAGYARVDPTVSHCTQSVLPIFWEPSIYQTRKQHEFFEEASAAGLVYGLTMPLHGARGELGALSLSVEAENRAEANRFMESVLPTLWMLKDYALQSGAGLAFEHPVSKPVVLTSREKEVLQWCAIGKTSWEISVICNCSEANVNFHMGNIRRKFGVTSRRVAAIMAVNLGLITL
Text: 1.1.3. The Bacterial Reporter Strain E. coli pSB1075 • A bacterial reporter strain of the Quorum Sensing was used to study the ability of the molecules to be recognized by the Pseudomonas aeruginosa AHL receptor (LasR) and induce an activation. […] This bioluminescent strain was modified by addition of a plasmid pSB1075. This plasmid contains genes encoding both tetracycline resistance and the expression of the LasR AHL receptor from the Pseudomonas aeruginosa bacteria, as well as a fusion gene derived from the LasR promoter and the luxCDABE gene from Photorhabdus luminescence. The bacterial strain was grown in the LB medium supplemented with 5 μg/ml tetracycline to exert a selection pressure and ensure that only the desired strain was amplified. The fusion gene included in the plasmid gives the bacteria the ability to emit a bioluminescence when the LasR receptor is activated, and provides the user with a robust test for the molecular screening. […] On day 1, the culture was diluted 1:100 (P1) in 10 ml of LB medium supplemented with 5 μg/ml tetracycline and maintained for 24 hours at 37° C. under stirring at 70 rpm. On day 2, the experiment took place: a bacterial suspension extemporaneously diluted 1:10 in LB medium supplemented with 5 μg/ml tetracycline (P2) was dispensed into a black opaque 96-well plate and incubated for 4 hours with a range of AHL concentrations or controls until the resulting luminescence was read at the end point. All experiments were performed in triplicates.
1.3. […] This bioluminescent strain was developed by the addition of a plasmid pSB1075 containing genes encoding the tetracycline resistance and the expression of the LasR AHL receptor, as well as a fusion gene of the LasR promoter and the luxCDABE gene of Photorhabdus luminescence. • On day 1, a 1/100 dilution of the bacterial strain (P1) was grown for 24 hours at 37° C. under stirring (70 rpm) in a LB medium containing 5 μg/ml tetracycline (pressure selective). On day 2, P1 was diluted 1:10 in the same medium to obtain P2. In a black 96-well plate were placed 200 μL of P2 and 10 μL of the short chain compound (medium, water and DMSO for the negative controls, C4-HSL as positive control, and the test sample at the desired concentration). The plate was incubated for 4 hours at 37° C. under stirring at 70 rpm. […] After that, the incubation was continued according to the conventional protocol, with the test compound at the desired concentrations.

[3] = test system: E. coli K12 strain; test: Bactericidal dosage on the E. coli K12 strain (absorbance at 600 nm); assay type: cell-based; conditions: for comparative survival of E. coli K12: all concentrations, maximum 100 μM shown, 18 h
Description: 1.1.4. Bactericidal Dosage • The K12 strain of E. coli was grown on agar on day 0 and a colony was transferred to the LYBHI liquid bacterial culture medium on day 1. On day 2, the colony was diluted 1:100 in LYBHI medium and amplified for 18 hours before transfer to an opaque 96-well plate. In each well, LYBHI, controls or increasing doses of tested molecules and bacteria were distributed. The absorbance at 600 nm was read at start-up (t=0) and after an 18-hour incubation. The raw absorbance values were corrected using the absorbance of solutions without bacteria. All experiments were performed twice, each with 4 replicates.
The E. coli K12 strain was cultured at D0 on agar gel, and then a selected colony was transferred to a liquid bacterial culture LYBHI medium at D1. At day 2, this colony was diluted 1:100 in LYBHI medium, and maintained for 18 hours for expansion before distribution in an opaque 96-well plate. In each well were distributed: LYBHI medium, bacterial culture, and test or control compounds. The absorbance of the wells was read at 600 nm at t0 and t18h. The raw absorbance values were corrected against the absorbance of the wells containing only LYBHI medium without bacteria or compounds.

[4] = test system: Caco-2/TC7 cells; test: Cytotoxicity test, LDH secretion, Caco-2/TC7; assay type: cell-based; conditions: 1-100 μM; for measured cytotoxicity (LDH): Caco-2/TC7
Description: (§1) 1.2.6. […] To measure the concentration of LDH in the cell lysate, 800 μL of NADH was added to 10 μL of […] and 190 μL of 0.1 M PBS in a plastic cuvette, and the decrease in the absorbance at 340 nm was monitored for 1 min. […] The percentage of cytotoxicity could be established with the formula: […]
(§2) The cytotoxicity of the tested and control compounds was evaluated using a measurement test of the LDH (Lactate Dehydrogenase) secretion. This test is based on the measurement of the amount of LDH secreted by the cells in their supernatant, compared to the amount of LDH that will remain in the intracellular compartment. This ratio provides an indication of the membrane damage suffered by the cells, and thus of the cytotoxicity of the compound.
(§3) Two methods were used to perform this test: the measurement using an extemporaneously prepared pyruvate/NADH solution, or using the Cytotoxicity Detection Kit^PLUS(LDH) from the manufacturer Roche (Sigma-Aldrich).
(§4) Pyruvate/NADH method: pyruvate/NADH solution prepared with 4.1 mg pyruvic acid (0.62 mM) and 7.7 mg NADH (0.18 mM) in 60 ml of 0.1M PBS (pH 7.4).
(§5) For the measurement of the LDH concentration in the supernatants, 800 μL of NADH was added to 200 μL of supernatant in plastic spectrometry cuvettes, and the decrease in absorbance of the final solution was read at 340 nm for 1 min. For the measurement of the LDH concentration in the cell lysates, 800 μL of NADH was added to 10 μL of cell lysates and 190 μL of 0.1M PBS in plastic spectrometry cuvettes, and the decrease in absorbance of the final solution was read at 340 nm for 1 min. The percentage of LDH secreted was then calculated by the ratio of the decay slopes of the absorbance of the supernatants and of the cell lysates (respectively).
(§6) Cytotoxicity Detection Kit^PLUS (LDH) method: absorbance test performed according to the manufacturer's instructions. The percentage of LDH secreted was then calculated by the formula: […]

[5] = test system: Raw264.7 murine cells; test: Cytotoxicity test, LDH secretion, Raw264.7; assay type: cell-based; conditions: as early as 50 μM; basal and stimulated conditions
Description: as §1, §2, §3, §4, §5, §6

[6] = test system: human keratinocytes; test: Inhibition of IL-8 secretion by human keratinocytes stimulated by IL-17 and TNF-α; assay type: cell-based; conditions: test of FIG. 4
[7] = test system: human lymphocytes; test: Inhibition of IL-2 secretion by human lymphocytes stimulated by CD2, CD3 and CD28; assay type: cell-based; conditions: test of FIG. 5

SMILES	comparative survival of E. coli K12 [3]	measured cytotoxicity (LDH) [4] [%]	secreted LDH, Raw264.7 [5]	activity on IL-8 secretion by keratinocytes [6]	activity on IL-2 secretion by lymphocytes [7]	other results
CCCCCCCCCC(=O)CC(=O)NC1CCSC1=O (racemic) [I-1, 3-oxo-N-(tetrahydro-2-oxo-3-thienyl)-dodecanamide]	No significant differences					activity on IL-1β-stimulated Caco-2/TC7 cells compared with natural 3-oxo-C12 HSL ([1]; IL-1β stimulation, no concentration range stated): an activity equivalent to that of the natural 3-oxo-C12 HSL; activity on IL-1β-stimulated Caco-2/TC7 cells compared with natural 3-oxo-C12 HSL ([1]; at the 100 μM dose): more active than the latter; EC50 [2]: 0.125 µM
CCCCCCCCCC(=O)CC(=O)N[C@H]1CCOC1=O [3-oxo-C12-HSL, N-(3(S)-oxododecanoyl) homoserine lactone, reference compound]		≤ 2.5	an increase in secreted LDH	inactive	inactive	
CC/C=C\C/C=C\CCC(=O)CC(=O)N[C@H]1CCOC1=O [3-oxo-C12:2-HSL, reference compound]		≤ 1.5	an increase in secreted LDH	inactive	inactive	tolerance, Caco-2/TC7 ([4]; presence and absence of pro-inflammatory cytokines): well tolerated; bactericidal effect on E. coli K12 ([3]; 1-100 μM, 18 h of incubation): No toxic effect
CCCC(=O)N[C@H]1CCOC1=O [C4-HSL, reference compound]						EC50 ([2]; bacterial reporter strain, read-out: EC50 of LasR receptor activation): > 1000 µM
CCCCCCCCCC(=O)CC(=O)N[C@H]1CCSC1=O [I-3, 3-oxo N-[(3S)-tetrahydro-2-oxo-3-thienyl]-dodecanamide]	No significant differences					decrease in the inflammatory secretion ([1]; at 5 μM, IL-1β-stimulated Caco-2/TC7): 27%
